According to patent US12304890B2, “R-type pyridyloxycarboxylic acid, salt and ester derivative thereof, and preparation method therefor, and herbicidal composition and application thereof” (Qingdao Kingagroot Chemical Compound Co., Ltd., priority 2018, dated 2025):

Experiments:
Type in all cases: in vivo
[1] = test system: Digitaria sanguinalis; assay: Post-emergence test experiment, Digitaria sanguinalis; conditions: for Digitaria sanguinalis, activity level (growth inhibition rate) / inhibition at 200 g/ha: 200 g a.i./ha, 3 weeks, weed resistant to cyhalofop-butyl; for Activity level (growth inhibition rate), Digitaria sanguinalis: 1000 g a.i./ha, 3 weeks in greenhouse, fresh weight inhibition
Method in brief: (§1)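 Weed and crop seeds were sown in soil-filled pots, covered with 0.5-2 cm soil and grown in a greenhouse. Plants were sprayed at the 2-3 leaf stage, 2 weeks after sowing. Compounds were in acetone with tween-80 plus methyl oleate emulsible concentrate synergist (1.5 liters per hectare). Fresh weight inhibition was scored after 3 weeks.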

[2] = test system: Echinochloa crusgalli; assay: Post-emergence test experiment, Echinochloa crusgalli; conditions: for Echinochloa crusgalli, activity level (growth inhibition rate) / inhibition at 200 g/ha: 200 g a.i./ha, 3 weeks, weed resistant to ALS inhibitor and ACCe herbicides; for Activity level (growth inhibition rate), Echinochloa crusgalli: 1000 g a.i./ha, 3 weeks in greenhouse, fresh weight inhibition
Method in brief: as §1

[3] = test system: Semen Euphorbiae Lathyridis; assay: Post-emergence test experiment, Semen Euphorbiae Lathyridis; conditions: for Semen Euphorbiae Lathyridis, activity level (growth inhibition rate) / inhibition at 200 g/ha: 200 g a.i./ha, 3 weeks, weed resistant to cyhalofop-butyl
Experimental: (§2) The above described growth inhibition rate is fresh weight inhibition rate.
(§3) Post-emergence test experiment: Monocotyledonous and dicotyledonous weed seeds and main crop seeds (i. e. wheat, corn, rice, soybean, cotton, oilseed, millet and sorghum.) were put into a plastic pot loaded with soil. Then covered with 0.5-2 cm soil, the seeds were allowed to grow in good greenhouse environment. The test plants were treated at 2-3 leaf stage 2 weeks after sowing. The test compounds of the invention were dissolved with acetone respectively, then added with tween-80, and using 1.5 liters per hectare of an emulsible concentrate of methyl oleate as a synergist, and diluted by certain amount of water to certain concentration. The solution was sprayed to the plants with a sprayer. Then the plants were cultured for 3 weeks in the greenhouse, and the experiment result of weed controlling effect was listed in tables 4-5.

[4] = test system: rice; assay: Post-emergence test experiment, rice (crop selectivity); conditions: 3 weeks
Experimental: as §2, §3

[5] = test system: Monocotyledonous and dicotyledonous weed seeds and main crop seeds; assay: Post-emergence test experiment, other weeds and crops (Table 4, 1000 g a.i./ha); conditions: 3 weeks in greenhouse, fresh weight inhibition
Method in brief: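 Weed and crop seeds (wheat, corn, rice, soybean, cotton, oilseed, millet, sorghum) sown in soil pots in a greenhouse and sprayed at 2-3 leaf stage, 2 weeks after sowing. Compound in acetone/tween-80 with methyl oleate concentrate (1.5 L/ha) as synergist. Effect recorded as fresh-weight growth inhibition rate.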

[6] = Digitaria sanguinalis, 504 h, read-out: Digitaria sanguinalis, activity level (growth inhibition rate)
[7] = Echinochloa crus-galli, 504 h, read-out: Echinochloa crusgalli, activity level (growth inhibition rate)
[8] = 504 h, read-out: Semen Euphorbiae Lathyridis, activity level (growth inhibition rate)

| Compound | Digitaria sanguinalis, activity level (growth inhibition rate) [1] | Activity level (growth inhibition rate), Digitaria sanguinalis [1] | Echinochloa crusgalli, activity level (growth inhibition rate) [2] | Activity level (growth inhibition rate), Echinochloa crusgalli [2] | Semen Euphorbiae Lathyridis, activity level (growth inhibition rate) [3] | rice, activity level (growth inhibition rate) ([4]; 200 g a.i./ha) | Activity level (growth inhibition rate), Abutilon theophrasti Medic. [5] | Activity level (growth inhibition rate), Galium aparine [5] | Activity level (growth inhibition rate), Monochoria Vaginalis [5] | inhibition at 200 g/ha [1, 6] [%] | inhibition at 200 g/ha [2, 7] [%] | inhibition at 200 g/ha [3, 8] [%] | inhibition at 300 g/ha [1, 6] [%] | inhibition at 300 g/ha [2, 7] [%] | inhibition at 300 g/ha [3, 8] [%] | rice, activity level (growth inhibition rate) ([4]; 300 g a.i./ha) |
| --- | --- | --- | --- | --- | --- | --- | --- | --- | --- | --- | --- | --- | --- | --- | --- | --- |
| CCCCCCCCCCOC(=O)[C@@H](C)Oc1nc(F)c(Cl)c(N)c1Cl [Compound 2-195] | 5 (Level 5: the growth inhibition rate is greater than 85%) | 5 (Level 5: the growth inhibition rate is greater than 85%) | 4 (Level 4: the growth inhibition rate is equal to or greater than 60% and less than 85%) | 5 (Level 5: the growth inhibition rate is greater than 85%) | 5 (Level 5: the growth inhibition rate is greater than 85%) | 0 (Level 0: the growth inhibition rate is less than 5%) | 5 (Level 5: the growth inhibition rate is greater than 85%) | 5 (Level 5: the growth inhibition rate is greater than 85%) | 5 (Level 5: the growth inhibition rate is greater than 85%) | – | – | – | – | – | – | – |
| CC(C)=NOCCOC(=O)C(C)Oc1nc(F)c(Cl)c(N)c1Cl (stereo not drawn) [Compound 2-287] | 5 (Level 5: the growth inhibition rate is greater than 85%) | 5 (Level 5: the growth inhibition rate is greater than 85%) | 5 (Level 5: the growth inhibition rate is greater than 85%) | 5 (Level 5: the growth inhibition rate is greater than 85%) | 5 (Level 5: the growth inhibition rate is greater than 85%) | 0 (Level 0: the growth inhibition rate is less than 5%) | 5 (Level 5: the growth inhibition rate is greater than 85%) | 5 (Level 5: the growth inhibition rate is greater than 85%) | 5 (Level 5: the growth inhibition rate is greater than 85%) | – | – | – | – | – | – | – |
| CCOC(=O)C(C)Oc1nc(F)c(Cl)c(N)c1Cl (stereo not drawn) [reference compound] | – | – | – | – | – | 1 (Level 1: the growth inhibition rate is equal to or greater than 5% and less than 20%) | – | – | – | 20 to 40 | 20 to 40 | 40 to 60 | – | – | – | – |
| CC(Oc1nc(F)c(Cl)c(N)c1Cl)C(=O)OCCN(C)C (stereo not drawn) [Compound 2-283] | 5 (Level 5: the growth inhibition rate is greater than 85%) | 5 (Level 5: the growth inhibition rate is greater than 85%) | 5 (Level 5: the growth inhibition rate is greater than 85%) | 5 (Level 5: the growth inhibition rate is greater than 85%) | 5 (Level 5: the growth inhibition rate is greater than 85%) | 0 (Level 0: the growth inhibition rate is less than 5%) | 5 (Level 5: the growth inhibition rate is greater than 85%) | 5 (Level 5: the growth inhibition rate is greater than 85%) | 5 (Level 5: the growth inhibition rate is greater than 85%) | – | – | – | – | – | – | – |
| CC(Oc1nc(F)c(Cl)c(N)c1Cl)C(=O)O (stereo not drawn) [reference compound] | – | – | – | – | – | 2 (Level 2: the growth inhibition rate is equal to or greater than 20% and less than 40%) | – | – | – | 40 to 60 | 20 to 40 | 40 to 60 | – | – | – | – |
| CC(C)=NOC(=O)C(C)Oc1nc(F)c(Cl)c(N)c1Cl (stereo not drawn) [Compound 2-292] | 5 (Level 5: the growth inhibition rate is greater than 85%) | 5 (Level 5: the growth inhibition rate is greater than 85%) | 5 (Level 5: the growth inhibition rate is greater than 85%) | 5 (Level 5: the growth inhibition rate is greater than 85%) | 5 (Level 5: the growth inhibition rate is greater than 85%) | – | 5 (Level 5: the growth inhibition rate is greater than 85%) | 5 (Level 5: the growth inhibition rate is greater than 85%) | 5 (Level 5: the growth inhibition rate is greater than 85%) | – | – | – | – | – | – | – |
| CCCCOC(=O)[C@@H](C)Oc1ccc(Oc2ccc(C#N)cc2F)cc1 [cyhalofop-butyl, reference compound] | – | – | – | – | – | – | – | – | – | – | – | – | 5 to 20 | 5 to 20 | 5 to 20 | 0 (Level 0: the growth inhibition rate is less than 5%) |
| CC(Oc1nc(F)c(Cl)c(N)c1Cl)C(=O)OCC1CCCO1 (stereo not drawn) [drawing 482, reference compound] | – | – | – | – | – | 0 (Level 0: the growth inhibition rate is less than 5%) | – | – | – | – | 40 to 60 | – | – | – | – | – |
| COC(=O)[C@@H](C)Oc1ncc(Cl)c(N)c1Cl [Compound 2-30] | 5 (Level 5: the growth inhibition rate is greater than 85%) | 5 (Level 5: the growth inhibition rate is greater than 85%) | 4 (Level 4: the growth inhibition rate is equal to or greater than 60% and less than 85%) | 5 (Level 5: the growth inhibition rate is greater than 85%) | 4 (Level 4: the growth inhibition rate is equal to or greater than 60% and less than 85%) | – | 5 (Level 5: the growth inhibition rate is greater than 85%) | 5 (Level 5: the growth inhibition rate is greater than 85%) | 5 (Level 5: the growth inhibition rate is greater than 85%) | – | – | – | – | – | – | – |
